Measured values reported in patent US20210205272A1, “DOSING REGIMENS FOR TREATMENT OF SOLID TUMORS HAVING ONE OR MORE GENETIC ALTERATIONS IN FGFR1, FGFR2, AND/OR FGFR3” (DEBIOPHARM INTERNATIONAL, S.A., priority 2018, published 2021).

Columns and labels:
[1] = system: advanced solid tumors harboring FGFR 1, 2 or 3 gene alterations; assay: Phase I dose escalation Debio 1347-101: tumor response by RECIST 1.1; format: in vivo, human
[2] = system: advanced solid malignancies of any histological tumor type harboring an FGFR 1, 2 or 3 fusion; assay: Expansion part of Debio 1347-101 phase I study: tumor response by RECIST 1.1; format: in vivo, human; settings: 80 mg once daily
Method: The primary objective of this expansion phase is to confirm the safety profile at the RP2D of 80 mg once daily.
As of January 2019, two patients achieved a BOR of PR by investigator assessment according to RECIST 1.1 criteria, one suffering from a cholangiocarcinoma harboring a FGFR2-TACC2 fusion and one suffering from a colon cancer harboring a FGFR2-RP11-89K10.1 fusion.

clinical = settings: in vivo
[3] = 10 patients with confirmed FGFR fusions, doses ≥60 mg/day
[4] = confirmed FGFR fusions, doses ≥60 mg/day
[5] = one patient, intrahepatic cholangiocarcinoma, FGFR2 deletion of exon 5

Cc1nc2cc(-n3ncc(C(=O)c4cc5ccccc5[nH]4)c3N)ccc2[nH]1 [Debio 1347, 5-amino-1-(2-methyl-1H-benzo[d]imidazol-5-yl)-1H-pyrazol-4-yl 1H-indol-2-yl ketone]
drug-related deaths (58 treated patients): no death was considered drug-related | maximum tolerated dose (MTD) (escalated up to 150 mg, ≤2 DLTs at the same dose level): not formally reached | TEAE highest severity grade 1 (human, in vivo): 4 (6.9%) patients | TEAE highest severity grade 2 (human, in vivo): 17 (29.3%) patients | TEAE highest severity grade 3 (human, in vivo): 28 (48.3%) patients | TEAE highest severity grade 4 (human, in vivo): 2 (3.4%) patients | number of serious adverse effects (SAEs) (human, in vivo): 39 SAEs | patients experiencing serious adverse effects (SAEs) (human, in vivo): 20 patients | patients requiring a dose reduction (human, in vivo): 20% | patients requiring a dose reduction after the 28-day DLT period (human, in vivo): 7 out of 9 | patients requiring dose modifications due to adverse events (human, in vivo): 30 (51.7%) patients | SAEs deemed possibly study drug related (DLTs) (in vivo): two | TEAEs most often severe (grade >2) (in vivo): hyperphosphatemia, anemia, hyponatremia, and dyspnea | dose reduction required (in vivo): no dose reduction was required at all | most common TEAEs with an incidence ≥25% (in vivo): hyperphosphatemia, diarrhea, nausea, fatigue, constipation, decreased appetite, nail changes, and dry mouth | safety profile (in vivo): tolerable and manageable safety profile | TEAE highest severity grade 5 (of 58 treated patients): 7 (12.1%) patients | patients died from disease progression (of 58 treated patients): 21 patients | patients achieving PR [1, 3]: 3 patients | patients achieving disease stabilization [1, 3]: 5 patients | patients with progressive disease ([1]; 57 evaluable patients): 35 patients | patients with stable disease ([1]; 57 evaluable patients): 16 patients | tumor type, FGFR alteration and dose of the six PRs ([1]; 57 evaluable patients): two had urothelial carcinoma (FGFR3 fusion—80, 150 mg), the others uterine (FGFR1 amplified—30 mg), cervical (FGFR2 amplified—80 mg), colon cancer (FGFR1 amplified—110 mg) or cholangiocarcinoma (FGFR2 mutation—110 mg) | patients with partial response (PR), overall ([1]; 57 patients evaluable for tumor response): 6 patients | disease control rate (DCR) overall ([1]; all evaluable patients): 38.6% | response after independent centralized radiological review ([1]; cholangiocarcinoma, FGFR2 mutation, 110 mg): confirmed completed response (CR) | disease control rate (DCR) [1, 4]: 80% | median treatment duration in patients with disease control [1, 4]: 34 weeks | range of treatment duration in patients with disease control [1, 4]: 24-47 weeks | antitumor activity ([1]; mainly FGFR2 or 3 gene alterations incl. fusion/translocation, 80 mg and 110 mg daily): Encouraging antitumor activity | stable disease patients with reduced target lesion size ≤30% at least once on-treatment ([1]; of 16 with stable disease): 10 patients | patients with progressive disease per clinical assessment in absence of radiographic evidence ([1]; of 35 with progressive disease): 13 patients | duration of partial response [1, 5]: up to 48 weeks | response upon independent radiological review [1, 5]: complete response | tumor volume reduction ([2]; cholangiocarcinoma FGFR2-ATAD2 fusion, after 6 weeks of treatment): about 7% | patients with BOR of PR by investigator assessment ([2]; cholangiocarcinoma FGFR2-TACC2 fusion and colon cancer FGFR2-RP11-89K10.1 fusion, as of January 2019): two | best response ([2]; one patient, cholangiocarcinoma FGFR2-ATAD2 fusion): disease stabilization (SD) | half-life (clinical; human, po): 11.5 h | hyperphosphatemia dose relation (clinical): dose-dependent
